Measurements taken from PubChem BioAssay AID1963965 (Molecular Pharmacology Branch, DTP, NCI, 2024).
pIC50: −log10 of the molar value. One block for each compound: values may come before it.

Tested on: 996289-038-R-J1-PDC spheroid viability
Assay: Anticancer human tumor 996289-038-R-J1-PDC patient-derived colon adenocarcinoma cell line growth inhibition [PI3K]
Settings: spheroids with HUVEC and MSC; for pIC50: curve of first compound; for viability, T/C: stronger effect = lower value
Procedure, shortened: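 We assembled tumor spheroids that included a stromal compartment of HUVEC and MSCs, then exposed them to targeted agents alone and together with PI3K pathway inhibitors. Concentration series descended by half-log from clinically achievable Cmax levels. Viability served as the endpoint.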

[1] = second compound 0.00316 µM, first compound 0.000316 µM
[2] = second compound 0.00316 µM, first compound 0.001 µM
[3] = second compound 0.00316 µM, first compound 0.00316 µM
[4] = second compound 0.00316 µM, first compound 0.01 µM
[5] = second compound 0.00316 µM, first compound 0.0316 µM
[6] = second compound 0.00316 µM, first compound 0.1 µM
[7] = second compound 0.01 µM, first compound 0.000316 µM
[8] = second compound 0.01 µM, first compound 0.001 µM
[9] = second compound 0.01 µM, first compound 0.00316 µM
[10] = second compound 0.01 µM, first compound 0.01 µM
[11] = second compound 0.01 µM, first compound 0.0316 µM
[12] = second compound 0.01 µM, first compound 0.1 µM
[13] = second compound 0.0316 µM, first compound 0.000316 µM
[14] = second compound 0.0316 µM, first compound 0.001 µM
[15] = second compound 0.0316 µM, first compound 0.00316 µM
[16] = second compound 0.0316 µM, first compound 0.01 µM
[17] = second compound 0.0316 µM, first compound 0.0316 µM
[18] = second compound 0.0316 µM, first compound 0.1 µM
[19] = second compound 0.1 µM, first compound 0.000316 µM
[20] = second compound 0.1 µM, first compound 0.001 µM
[21] = second compound 0.1 µM, first compound 0.00316 µM
[22] = second compound 0.1 µM, first compound 0.01 µM
[23] = second compound 0.1 µM, first compound 0.0316 µM
[24] = second compound 0.1 µM, first compound 0.1 µM
[25] = second compound 0.316 µM, first compound 0.000316 µM
[26] = second compound 0.316 µM, first compound 0.001 µM
[27] = second compound 0.316 µM, first compound 0.00316 µM
[28] = second compound 0.316 µM, first compound 0.01 µM
[29] = second compound 0.316 µM, first compound 0.0316 µM
[30] = second compound 0.316 µM, first compound 0.1 µM
[31] = second compound 1 µM, first compound 0.000316 µM
[32] = second compound 1 µM, first compound 0.001 µM
[33] = second compound 1 µM, first compound 0.00316 µM
[34] = second compound 1 µM, first compound 0.01 µM
[35] = second compound 1 µM, first compound 0.0316 µM
[36] = second compound 1 µM, first compound 0.1 µM
[37] = second compound 0.00316 µM, first compound 0.316 µM
[38] = second compound 0.00316 µM, first compound 1 µM
[39] = second compound 0.00316 µM, first compound 3.16 µM
[40] = second compound 0.00316 µM, first compound 10 µM
[41] = second compound 0.01 µM, first compound 0.316 µM
[42] = second compound 0.01 µM, first compound 1 µM
[43] = second compound 0.01 µM, first compound 3.16 µM
[44] = second compound 0.01 µM, first compound 10 µM
[45] = second compound 0.0316 µM, first compound 0.316 µM
[46] = second compound 0.0316 µM, first compound 1 µM
[47] = second compound 0.0316 µM, first compound 3.16 µM
[48] = second compound 0.0316 µM, first compound 10 µM
[49] = second compound 0.1 µM, first compound 0.316 µM
[50] = second compound 0.1 µM, first compound 1 µM
[51] = second compound 0.1 µM, first compound 3.16 µM
[52] = second compound 0.1 µM, first compound 10 µM
[53] = second compound 0.316 µM, first compound 0.316 µM
[54] = second compound 0.316 µM, first compound 1 µM
[55] = second compound 0.316 µM, first compound 3.16 µM
[56] = second compound 0.316 µM, first compound 10 µM
[57] = second compound 1 µM, first compound 0.316 µM
[58] = second compound 1 µM, first compound 1 µM
[59] = second compound 1 µM, first compound 3.16 µM
[60] = second compound 1 µM, first compound 10 µM
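Also: spheroids exposed to compounds for seven days before viability read.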
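For viability, T/C in this document: luminescence used as a proxy for viable cell amount; percent viability relative to DMSO vehicle control as 100%.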

pIC50 (second compound 0.00316 µM): < 7.00 | pIC50 (second compound 0.01 µM): < 7.00 | pIC50 (second compound 0.0316 µM): < 7.00 | pIC50 (second compound 0.1 µM): < 7.00 | pIC50 (second compound 0.316 µM): > 9.50 | pIC50 (second compound 1 µM): > 9.50
SMILES: CC(=O)c1c(C)c2cnc(Nc3ccc(N4CCNCC4)cn3)nc2n(C2CCCC2)c1=O + COc1c(OCCCN2CCOCC2)ccc2c3n(c(=NC(=O)c4cnc(N)nc4)nc12)CCN3
viability, T/C [1]: 99.3% | viability, T/C [2]: 96.9% | viability, T/C [3]: 104% | viability, T/C [4]: 94.2% | viability, T/C [5]: 97.4% | viability, T/C [6]: 83.1% | viability, T/C [7]: 89.1% | viability, T/C [8]: 89.9% | viability, T/C [9]: 80.2% | viability, T/C [10]: 90.8% | viability, T/C [11]: 94.2% | viability, T/C [12]: 73% | viability, T/C [13]: 66.1% | viability, T/C [14]: 81.4% | viability, T/C [15]: 80.5% | viability, T/C [16]: 81.8% | viability, T/C [17]: 73.7% | viability, T/C [18]: 70.6% | viability, T/C [19]: 62.7% | viability, T/C [20]: 56% | viability, T/C [21]: 59.4% | viability, T/C [22]: 55% | viability, T/C [23]: 57.5% | viability, T/C [24]: 49.8% | viability, T/C [25]: 34.4% | viability, T/C [26]: 31.6% | viability, T/C [27]: 39.1% | viability, T/C [28]: 31.3% | viability, T/C [29]: 37.8% | viability, T/C [30]: 29.4% | viability, T/C [31]: 19.1% | viability, T/C [32]: 22% | viability, T/C [33]: 21.5% | viability, T/C [34]: 16.6% | viability, T/C [35]: 17.7% | viability, T/C [36]: 15.9%

pIC50 (second compound 0.00316 µM): 7.26 | pIC50 (second compound 0.01 µM): 7.30 | pIC50 (second compound 0.0316 µM): 7.50 | pIC50 (second compound 0.1 µM): 8.12 | pIC50 (second compound 0.316 µM): > 9.50 | pIC50 (second compound 1 µM): > 9.50
SMILES: CC(C)n1nc(-c2ccc3oc(N)nc3c2)c2c(N)ncnc21 + COc1c(OCCCN2CCOCC2)ccc2c3n(c(=NC(=O)c4cnc(N)nc4)nc12)CCN3
viability, T/C [1]: 92% | viability, T/C [2]: 81.8% | viability, T/C [3]: 83.2% | viability, T/C [4]: 81.4% | viability, T/C [5]: 63.5% | viability, T/C [6]: 34.5% | viability, T/C [7]: 92.1% | viability, T/C [8]: 79.2% | viability, T/C [9]: 91.3% | viability, T/C [10]: 82.8% | viability, T/C [11]: 65.7% | viability, T/C [12]: 25.6% | viability, T/C [13]: 69% | viability, T/C [14]: 73.7% | viability, T/C [15]: 77.9% | viability, T/C [16]: 68.3% | viability, T/C [17]: 50.2% | viability, T/C [18]: 25.1% | viability, T/C [19]: 59.1% | viability, T/C [20]: 56.6% | viability, T/C [21]: 54.1% | viability, T/C [22]: 48.3% | viability, T/C [23]: 37.8% | viability, T/C [24]: 16.1% | viability, T/C [25]: 34.8% | viability, T/C [26]: 32.9% | viability, T/C [27]: 29.9% | viability, T/C [28]: 35% | viability, T/C [29]: 24.9% | viability, T/C [30]: 10.9% | viability, T/C [31]: 20.9% | viability, T/C [32]: 16.9% | viability, T/C [33]: 16.4% | viability, T/C [34]: 16.6% | viability, T/C [35]: 14.4% | viability, T/C [36]: 10.3%

pIC50 (second compound 0.00316 µM): 5.22 | pIC50 (second compound 0.01 µM): 5.22 | pIC50 (second compound 0.0316 µM): 5.29 | pIC50 (second compound 0.1 µM): 5.75 | pIC50 (second compound 0.316 µM): > 7.50 | pIC50 (second compound 1 µM): > 7.50
SMILES: CCCS(=O)(=O)Nc1ccc(F)c(C(=O)c2c[nH]c3ncc(-c4ccc(Cl)cc4)cc23)c1F + COc1c(OCCCN2CCOCC2)ccc2c3n(c(=NC(=O)c4cnc(N)nc4)nc12)CCN3
viability, T/C [5]: 98.9% | viability, T/C [6]: 81.6% | viability, T/C [37]: 94.6% | viability, T/C [38]: 108% | viability, T/C [39]: 87.5% | viability, T/C [40]: 19.9% | viability, T/C [11]: 96.4% | viability, T/C [12]: 92.6% | viability, T/C [41]: 87.4% | viability, T/C [42]: 85.7% | viability, T/C [43]: 90.6% | viability, T/C [44]: 19.4% | viability, T/C [17]: 71% | viability, T/C [18]: 78.2% | viability, T/C [45]: 72.5% | viability, T/C [46]: 80.2% | viability, T/C [47]: 71.1% | viability, T/C [48]: 19.8% | viability, T/C [23]: 63.5% | viability, T/C [24]: 49.7% | viability, T/C [49]: 66.9% | viability, T/C [50]: 53.4% | viability, T/C [51]: 44.4% | viability, T/C [52]: 12.2% | viability, T/C [29]: 32.3% | viability, T/C [30]: 42.4% | viability, T/C [53]: 35.9% | viability, T/C [54]: 36.7% | viability, T/C [55]: 26% | viability, T/C [56]: 8.03% | viability, T/C [35]: 19.9% | viability, T/C [36]: 22.4% | viability, T/C [57]: 20.2% | viability, T/C [58]: 15.9% | viability, T/C [59]: 14% | viability, T/C [60]: 6.42%

pIC50 (second compound 0.00316 µM): < 5.00 | pIC50 (second compound 0.01 µM): < 5.00 | pIC50 (second compound 0.0316 µM): < 5.00 | pIC50 (second compound 0.1 µM): < 5.00 | pIC50 (second compound 0.316 µM): > 7.50 | pIC50 (second compound 1 µM): > 7.50
SMILES: CNC(=O)c1ccc(N2C(=S)N(c3ccc(C#N)c(C(F)(F)F)c3)C(=O)C2(C)C)cc1F + COc1c(OCCCN2CCOCC2)ccc2c3n(c(=NC(=O)c4cnc(N)nc4)nc12)CCN3
viability, T/C [5]: 103% | viability, T/C [6]: 92.2% | viability, T/C [37]: 93.2% | viability, T/C [38]: 106% | viability, T/C [39]: 99.4% | viability, T/C [40]: 125% | viability, T/C [11]: 98% | viability, T/C [12]: 89.8% | viability, T/C [41]: 103% | viability, T/C [42]: 88.9% | viability, T/C [43]: 87% | viability, T/C [44]: 106% | viability, T/C [17]: 82.5% | viability, T/C [18]: 78% | viability, T/C [45]: 81% | viability, T/C [46]: 67.5% | viability, T/C [47]: 89.4% | viability, T/C [48]: 92.4% | viability, T/C [23]: 66.5% | viability, T/C [24]: 66.2% | viability, T/C [49]: 64.8% | viability, T/C [50]: 67.7% | viability, T/C [51]: 58.7% | viability, T/C [52]: 65.9% | viability, T/C [29]: 40.1% | viability, T/C [30]: 33.2% | viability, T/C [53]: 34.5% | viability, T/C [54]: 39.8% | viability, T/C [55]: 40.3% | viability, T/C [56]: 27.6% | viability, T/C [35]: 21.8% | viability, T/C [36]: 19.9% | viability, T/C [57]: 18% | viability, T/C [58]: 20.1% | viability, T/C [59]: 19.1% | viability, T/C [60]: 13.8%
